From ChEMBL document CHEMBL3399947, “Structure activity relationship of selective GABA uptake inhibitors” (Bioorg Med Chem, 2015)

Assays:
Assay type in all cases: cell-based
GABA transporter 4 = biological target: T1, GABA transporter 4 (Mus musculus, UniProt P31650); assay: Inhibition of mouse mGAT4 expressed in HEK293 cells assessed as inhibition of [3H]GABA uptake after 3 mins incubation by TopCount microplate scintillation counting analysis; details: read-out: IC50
T1 sequence (P31650 whole entry): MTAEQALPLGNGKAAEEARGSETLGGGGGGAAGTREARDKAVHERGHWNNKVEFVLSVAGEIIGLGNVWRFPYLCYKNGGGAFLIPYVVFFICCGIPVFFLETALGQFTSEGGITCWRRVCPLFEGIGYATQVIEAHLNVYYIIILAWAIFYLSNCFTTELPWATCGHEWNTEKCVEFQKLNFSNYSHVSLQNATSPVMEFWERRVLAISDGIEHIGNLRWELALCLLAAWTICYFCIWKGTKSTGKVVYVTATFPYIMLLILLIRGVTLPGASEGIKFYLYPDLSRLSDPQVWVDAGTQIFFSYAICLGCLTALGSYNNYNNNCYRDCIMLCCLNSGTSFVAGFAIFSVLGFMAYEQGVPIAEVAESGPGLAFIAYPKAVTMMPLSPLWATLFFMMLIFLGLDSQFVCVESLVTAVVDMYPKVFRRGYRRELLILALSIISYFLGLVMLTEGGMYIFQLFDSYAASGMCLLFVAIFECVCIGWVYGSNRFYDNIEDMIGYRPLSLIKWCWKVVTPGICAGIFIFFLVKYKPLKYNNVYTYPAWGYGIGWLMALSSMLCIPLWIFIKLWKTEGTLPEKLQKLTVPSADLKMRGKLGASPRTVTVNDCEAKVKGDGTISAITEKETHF

[1] = biological target: Sodium- and chloride-dependent GABA transporter 1 (Mus musculus, UniProt P31648); assay: Inhibition of mouse mGAT1 expressed in HEK293 cells assessed as inhibition of [3H]GABA uptake after 3 mins incubation by TopCount microplate scintillation counting analysis; details: read-out: IC50
GABA transporter 2 = biological target: T2, GABA transporter 2 (Mus musculus, UniProt P31651); assay: Inhibition of mouse mGAT2 expressed in HEK293 cells assessed as inhibition of [3H]GABA uptake after 3 mins incubation by TopCount microplate scintillation counting analysis
T2 sequence (P31651 whole entry): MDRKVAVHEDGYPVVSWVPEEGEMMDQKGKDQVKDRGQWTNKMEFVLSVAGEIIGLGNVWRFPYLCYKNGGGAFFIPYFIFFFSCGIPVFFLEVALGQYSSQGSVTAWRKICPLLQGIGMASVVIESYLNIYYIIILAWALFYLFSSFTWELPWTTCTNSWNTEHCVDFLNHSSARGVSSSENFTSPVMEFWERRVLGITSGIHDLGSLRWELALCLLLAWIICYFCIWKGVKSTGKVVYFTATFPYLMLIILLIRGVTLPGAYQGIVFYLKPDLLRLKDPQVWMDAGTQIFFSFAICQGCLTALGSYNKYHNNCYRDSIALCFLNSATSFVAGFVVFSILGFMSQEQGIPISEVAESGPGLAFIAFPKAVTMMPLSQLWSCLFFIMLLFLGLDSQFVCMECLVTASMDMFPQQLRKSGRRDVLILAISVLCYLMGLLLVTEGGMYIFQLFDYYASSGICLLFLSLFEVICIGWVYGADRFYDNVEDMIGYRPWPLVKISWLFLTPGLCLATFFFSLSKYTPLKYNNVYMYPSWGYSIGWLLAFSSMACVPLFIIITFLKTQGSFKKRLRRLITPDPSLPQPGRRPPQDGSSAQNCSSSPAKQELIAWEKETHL

GABA transporter 3 = biological target: T3, GABA transporter 3 (Mus musculus, UniProt P31649); assay: Inhibition of mouse mGAT3 expressed in HEK293 cells assessed as inhibition of [3H]GABA uptake after 3 mins incubation by TopCount microplate scintillation counting analysis
T3 sequence (P31649 whole entry): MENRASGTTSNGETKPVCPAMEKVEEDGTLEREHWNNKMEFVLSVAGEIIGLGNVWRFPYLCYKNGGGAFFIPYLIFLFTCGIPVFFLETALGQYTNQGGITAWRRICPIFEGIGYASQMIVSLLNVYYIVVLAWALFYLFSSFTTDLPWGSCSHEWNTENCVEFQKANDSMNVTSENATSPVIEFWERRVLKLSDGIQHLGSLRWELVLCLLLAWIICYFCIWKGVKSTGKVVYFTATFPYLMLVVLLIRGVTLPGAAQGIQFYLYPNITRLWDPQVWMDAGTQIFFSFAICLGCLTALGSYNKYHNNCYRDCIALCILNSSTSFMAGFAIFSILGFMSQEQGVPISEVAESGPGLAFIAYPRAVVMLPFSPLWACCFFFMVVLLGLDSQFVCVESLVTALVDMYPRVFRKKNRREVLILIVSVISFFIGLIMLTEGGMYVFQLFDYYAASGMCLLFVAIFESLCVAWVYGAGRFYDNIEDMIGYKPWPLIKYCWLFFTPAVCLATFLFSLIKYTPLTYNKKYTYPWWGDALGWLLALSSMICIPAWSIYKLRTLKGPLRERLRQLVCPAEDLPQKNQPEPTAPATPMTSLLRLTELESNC

Row | Compound | IC50 (GABA transporter 4) [µM] | IC50 [1] [µM] | IC50 (GABA transporter 2; read-out: IC50) [µM] | IC50 (GABA transporter 2; read-out: pIC50 (converted)) [µM] | IC50 (GABA transporter 3; read-out: IC50) [µM] | IC50 (GABA transporter 3; read-out: pIC50 (converted)) [µM] | IC50 (GABA transporter 4; hek293) [µM] | IC50 (GABA transporter 3; hek293, read-out: IC50) [µM]
1 | CCCCN1CCN(CCON=C(c2ccccc2)c2ccccc2)CC(C(=O)O)C1 (stereo not drawn) | > 1000 | > 1000 | > 1000 |  | > 1000 |  |  | 
2 | CNCCC=C1c2ccccc2CCc2ccccc21 [NORTRIPTYLINE] | 249 | 389 | 171 |  | 270 |  |  | 
3 | O=C(O)C1CN(CCON=C(c2ccccc2)c2ccccc2)CCN1 (racemic) | > 1000 | 216 | > 1000 |  | > 1000 |  |  | 
4 | O=C(O)C1CN(CCO)CCN(CCON=C(c2ccccc2)c2ccccc2)C1 (stereo not drawn) | > 1000 | > 1000 | > 1000 |  | > 1000 |  |  | 
5 | CCN1CCN(CCC=C(c2sccc2C)c2sccc2C)CC(C(=O)O)C1 (stereo not drawn) | > 1000 | 483 | 318 |  | 1700 |  |  | 
6 | CN(CCON=C(c1ccccc1)c1ccccc1)[C@@H]1CCCC[C@H]1C(=O)O (racemic) | > 2000 |  | 1100 |  | > 2000 |  |  | 
7 | CN(CCON=C(c1ccccc1)c1ccccc1)[C@@H]1CCCC[C@H]1C(=O)O |  | > 2000 | 880 |  |  |  | > 2000 | > 2000
8 | CCN1CCN(CCON=C(c2ccccc2)c2ccccc2)CC(C(=O)O)C1 (stereo not drawn) | > 1000 | > 1000 | > 1000 |  | > 1000 |  |  | 
9 | Cc1ccsc1C(=CCCN1CCN(CCO)CC(C(=O)O)C1)c1sccc1C (stereo not drawn) | > 1000 | > 1000 | > 1000 |  | > 1000 |  |  | 
10 | Cc1ccsc1C(=CCCN1CCN(C(=N)N)CC(C(=O)O)C1)c1sccc1C (stereo not drawn) | > 1000 | > 1000 | > 1000 |  | > 1000 |  |  | 
11 | CCC(C)N1CCN(CCC=C(c2sccc2C)c2sccc2C)CC(C(=O)O)C1 (stereo not drawn) | > 1000 | > 1000 | 160 |  | > 1000 |  |  | 
12 | CNCCC=C(c1sccc1C)c1sccc1C | 254 | 160 | 179 |  | 137 |  |  | 
13 | Cc1ccsc1C(=CCCN(C)C1CCCC=C1C(=O)O)c1sccc1C (stereo in doubt; (E1)-6a) | 468 | 170 | 76.7 |  | 765 |  |  | 
14 | Cc1ccsc1C(=CCCN(C)CCC(=O)O)c1sccc1C | 1280 | 966 | 937 |  | 343 |  |  | 
15 | COc1ccccc1C1(O)CCN(CCCn2c3ccccc3c3ccccc32)CC1 |  |  | 1.4 |  | 41 |  |  | 
16 | Cc1ccsc1C(=CCCNCCC(=O)O)c1sccc1C | 1730 | 171 | 504 |  | 796 |  |  | 
17 | O=C(O)CCNCc1cn(CCOC(c2ccc(C(F)(F)F)cc2)c2ccc(C(F)(F)F)cc2)nn1 | > 1000 | > 1000 | > 1000 |  | > 1000 |  |  | 
18 | CN(CCON=C(c1ccccc1)c1ccccc1)[C@H]1CCCC[C@H]1C(=O)O | > 1000 | > 1000 | 417 |  | > 1000 |  |  | 
19 | CN(CCON=C(c1ccccc1)c1ccccc1)[C@@H]1CCCC[C@@H]1C(=O)O | > 1000 | > 1000 | 443 |  | > 1000 |  |  | 
20 | Cc1ccsc1C(=CCCN(C)[C@@H]1CCCC[C@H]1C(=O)O)c1sccc1C | 551 | 194 | 133 |  | 633 |  |  | 
21 | CN(CCCP(=O)(O)O)CCON=C(c1ccccc1)c1ccccc1 | > 1000 | > 1000 | > 1000 |  | > 1000 |  |  | 
22 | Cc1ccsc1C(=CCCN1CCN(CCON=C(c2ccccc2)c2ccccc2)CC(C(=O)O)C1)c1sccc1C (stereo not drawn) | > 1000 | > 1000 | > 1000 |  | > 1000 |  |  | 
23 | Cc1ccsc1C(=CCCN1CCC[C@@H](C(=O)O)C1)c1sccc1C [TIAGABINE] |  |  |  |  | > 300 |  |  | 

Further lines, with some results ahead:

Row | IC50 (GABA transporter 4) [µM] | IC50 [1] [µM] | IC50 (GABA transporter 2; read-out: IC50) [µM] | IC50 (GABA transporter 2; read-out: pIC50 (converted)) [µM] | IC50 (GABA transporter 3; read-out: IC50) [µM] | IC50 (GABA transporter 3; read-out: pIC50 (converted)) [µM] | Compound | IC50 (GABA transporter 4; hek293) [µM] | IC50 (GABA transporter 3; hek293, read-out: IC50) [µM]
24 | 341 | 426 | 76.6 | 77.6 | 349 |  | CN(CCON=C(c1ccccc1)c1ccccc1)[C@@H]1CCCC[C@@H]1CO |  | 
25 | 1450 | 1820 | 88.9 |  | 1030 |  | CN(CCC=C1c2ccccc2CCc2ccccc21)[C@@H]1CCCC[C@@H]1C(=O)O |  | 
26 | 539 | 445 | 63.1 |  | 336 |  | CN(CCOC(c1ccc(C(F)(F)F)cc1)c1ccc(C(F)(F)F)cc1)[C@@H]1CCCC[C@@H]1C(=O)O |  | 
27 | 836 | 1240 | 114 |  | 1050 |  | CCOC(=O)[C@H]1CCCC[C@H]1N(C)CCON=C(c1ccccc1)c1ccccc1 |  | 
28 | 1220 | 604 | 201 |  | 654 | 646 | CCOC(=O)[C@H]1CCCC[C@H]1N(C)CCC=C(c1sccc1C)c1sccc1C |  | 
29 | 883 | 614 | 119 |  | 966 |  | CN(CCC=C1c2ccccc2CCc2ccccc21)[C@@H]1CCCC[C@H]1C(=O)O |  | 
30 | 835 | 801 | 217 |  | 602 |  | CCOC(=O)[C@@H]1CCCC[C@@H]1N(C)CCC=C(c1sccc1C)c1sccc1C |  | 
31 | 1210 | 425 | 325 |  | 511 |  | CCOC(=O)[C@H]1CCCC[C@H]1N(C)CCOC(c1ccc(C(F)(F)F)cc1)c1ccc(C(F)(F)F)cc1 |  | 
32 | 181 | 359 | 133 |  | 328 |  | CN(CCOC(c1ccc(C(F)(F)F)cc1)c1ccc(C(F)(F)F)cc1)[C@H]1CCCC[C@H]1CO |  | 
33 | 866 | 223 | 63.3 |  | 119 |  | CN(CCOC(c1ccc(C(F)(F)F)cc1)c1ccc(C(F)(F)F)cc1)[C@@H]1CCCC[C@@H]1CO |  | 
34 | 143 | 163 | 190 |  | 58 |  | CNCCOC(c1ccc(C(F)(F)F)cc1)c1ccc(C(F)(F)F)cc1 |  | 
35 | 171 | 286 | 50 |  | 153 |  | CN(CCC=C1c2ccccc2CCc2ccccc21)[C@@H]1CCCC[C@@H]1CO |  | 
36 | 126 | 191 | 28.3 |  | 148 |  | CN(CCC=C1c2ccccc2CCc2ccccc21)[C@H]1CCCC[C@H]1CO |  | 
37 | 136 | 415 | 49.1 |  | 295 |  | CN(CCON=C(c1ccccc1)c1ccccc1)[C@H]1CCCC[C@H]1CO |  | 
38 | 1470 | 508 | 417 |  | 652 |  | CCOC(=O)[C@@H]1CCCC[C@@H]1N(C)CCOC(c1ccc(C(F)(F)F)cc1)c1ccc(C(F)(F)F)cc1 |  | 
39 | 392 | 426 | 138 |  | 433 |  | CN(CCOC(c1ccc(C(F)(F)F)cc1)c1ccc(C(F)(F)F)cc1)[C@@H]1CCCC[C@H]1C(=O)O (racemic) |  | 
40 |  |  | 22 |  |  |  | COc1ccc(C(OCCN2CCC[C@H](C(=O)O)C2)(c2ccc(OC)cc2)c2ccc(OC)cc2)cc1 |  | 
